Measured values: patent US12049450B2, “Pyridyloxy-carboxylate derivative and preparation method therefor, herbicidal composition, and use” (Qingdao Kingagroot Chemical Compound Co., Ltd., priority 2018, dated 2024)

Key:
Experiment in all cases: Post-emergence test experiment (greenhouse pot, spray at 2-3 leaf stage)
Assay type in all cases: in vivo
Conditions in all cases: 1000 g/ha; post-emergence spray at 2-3 leaf stage; assessed after 3 weeks; fresh weight inhibition rate
[1] = system: Digitaria sanguinalis
Method in brief: (§1)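 Weed seeds sown in soil-filled pots in greenhouse, sprayed at 2-3 leaf stage (2 weeks after sowing) with compound in acetone/tween-80 plus methyl oleate emulsible concentrate (1.5 L/ha) diluted in water. Fresh-weight growth inhibition scored after 3 weeks on 0-5 scale (5: >85%, 0: <5%).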

[2] = system: Abutilon theophrasti
Method in brief: as §1

[3] = system: Monochoria vaginalis
Method in brief: as §1

[4] = system: Echinochloa crusgalli
Method in brief: as §1

[5] = system: Galium spurium
Method in brief: as §1

| SMILES | Activity level (growth inhibition rate) Digitaria sanguinalis [1] | Activity level (growth inhibition rate) Abutilon theophrasti [2] | Activity level (growth inhibition rate) Monochoria Vaginalis [3] | Activity level (growth inhibition rate) Echinochloa crusgalli [4] | Activity level (growth inhibition rate) Galium spurium [5] |
| --- | --- | --- | --- | --- | --- |
| CCNc1c(Cl)c(F)nc(OC(C)C(=O)SCc2ccccc2)c1Cl (stereo not shown) [Compound 191] | 5 (Level 5: the growth inhibition rate is greater than 85%) | 5 (Level 5: the growth inhibition rate is greater than 85%) | 5 (Level 5: the growth inhibition rate is greater than 85%) | 5 (Level 5: the growth inhibition rate is greater than 85%) | 5 (Level 5: the growth inhibition rate is greater than 85%) |
| CC(=O)Nc1c(Cl)c(F)nc(OC(C)C(=O)OCc2ccccc2)c1Cl (stereo not shown) [Compound 192] | 5 (Level 5: the growth inhibition rate is greater than 85%) | 5 (Level 5: the growth inhibition rate is greater than 85%) | 5 (Level 5: the growth inhibition rate is greater than 85%) | 5 (Level 5: the growth inhibition rate is greater than 85%) | 5 (Level 5: the growth inhibition rate is greater than 85%) |
| CC(Oc1nc(F)c(Cl)c(NC(=O)c2ccccc2)c1Cl)C(=O)OCc1ccccc1 (stereo not shown) [Compound 194] | 5 (Level 5: the growth inhibition rate is greater than 85%) | 5 (Level 5: the growth inhibition rate is greater than 85%) | 5 (Level 5: the growth inhibition rate is greater than 85%) | 5 (Level 5: the growth inhibition rate is greater than 85%) | 5 (Level 5: the growth inhibition rate is greater than 85%) |
| CC(Oc1nc(F)c(Cl)c(NCc2ccccc2)c1Cl)C(=O)OCc1ccccc1 (stereo not shown) [Compound 195] | 5 (Level 5: the growth inhibition rate is greater than 85%) | 5 (Level 5: the growth inhibition rate is greater than 85%) | 5 (Level 5: the growth inhibition rate is greater than 85%) | 5 (Level 5: the growth inhibition rate is greater than 85%) | 5 (Level 5: the growth inhibition rate is greater than 85%) |
| Cc1cccc(COC(=O)C(C)Oc2nc(F)c(Cl)c(N)c2Cl)c1 (stereo not shown) [Compound 196] | 5 (Level 5: the growth inhibition rate is greater than 85%) | 5 (Level 5: the growth inhibition rate is greater than 85%) | 5 (Level 5: the growth inhibition rate is greater than 85%) | 5 (Level 5: the growth inhibition rate is greater than 85%) | 5 (Level 5: the growth inhibition rate is greater than 85%) |
| Cc1ccc(COC(=O)C(C)Oc2nc(F)c(Cl)c(N)c2Cl)cc1 (stereo not shown) [Compound 197] | 5 (Level 5: the growth inhibition rate is greater than 85%) | 5 (Level 5: the growth inhibition rate is greater than 85%) | 5 (Level 5: the growth inhibition rate is greater than 85%) | 5 (Level 5: the growth inhibition rate is greater than 85%) | 5 (Level 5: the growth inhibition rate is greater than 85%) |
| CC(Oc1nc(F)c(Cl)c(N)c1Cl)C(=O)OCc1cccc(F)c1 (stereo not shown) [Compound 198] | 5 (Level 5: the growth inhibition rate is greater than 85%) | 5 (Level 5: the growth inhibition rate is greater than 85%) | 5 (Level 5: the growth inhibition rate is greater than 85%) | 5 (Level 5: the growth inhibition rate is greater than 85%) | 5 (Level 5: the growth inhibition rate is greater than 85%) |
| CC(Oc1nc(F)c(Cl)c(N)c1Cl)C(=O)OCc1ccc(F)cc1 (stereo not shown) [Compound 199] | 5 (Level 5: the growth inhibition rate is greater than 85%) | 5 (Level 5: the growth inhibition rate is greater than 85%) | 5 (Level 5: the growth inhibition rate is greater than 85%) | 5 (Level 5: the growth inhibition rate is greater than 85%) | 5 (Level 5: the growth inhibition rate is greater than 85%) |
| CC(Oc1nc(F)c(Cl)c(N)c1Cl)C(=O)OCc1ccccc1C#N (stereo not shown) [Compound 200] | 5 (Level 5: the growth inhibition rate is greater than 85%) | 5 (Level 5: the growth inhibition rate is greater than 85%) | 5 (Level 5: the growth inhibition rate is greater than 85%) | 5 (Level 5: the growth inhibition rate is greater than 85%) | 5 (Level 5: the growth inhibition rate is greater than 85%) |
| CC(Oc1nc(F)c(Cl)c(N)c1Cl)C(=O)OCc1cccc(C#N)c1 (stereo not shown) [Compound 201] | 5 (Level 5: the growth inhibition rate is greater than 85%) | 5 (Level 5: the growth inhibition rate is greater than 85%) | 5 (Level 5: the growth inhibition rate is greater than 85%) | 5 (Level 5: the growth inhibition rate is greater than 85%) | 5 (Level 5: the growth inhibition rate is greater than 85%) |
| CC(Oc1nc(F)c(Cl)c(N)c1Cl)C(=O)OCc1ccccc1Cl (stereo not shown) [Compound 202] | 5 (Level 5: the growth inhibition rate is greater than 85%) | 5 (Level 5: the growth inhibition rate is greater than 85%) | 5 (Level 5: the growth inhibition rate is greater than 85%) | 5 (Level 5: the growth inhibition rate is greater than 85%) | 5 (Level 5: the growth inhibition rate is greater than 85%) |
| CC(Oc1nc(F)c(Cl)c(N)c1Cl)C(=O)OCc1cccc(Cl)c1 (stereo not shown) [Compound 203] | 5 (Level 5: the growth inhibition rate is greater than 85%) | 5 (Level 5: the growth inhibition rate is greater than 85%) | 5 (Level 5: the growth inhibition rate is greater than 85%) | 5 (Level 5: the growth inhibition rate is greater than 85%) | 5 (Level 5: the growth inhibition rate is greater than 85%) |
| CC(Oc1nc(F)c(Cl)c(N)c1Cl)C(=O)OCc1ccc(Cl)cc1 (stereo not shown) [Compound 204] | 5 (Level 5: the growth inhibition rate is greater than 85%) | 5 (Level 5: the growth inhibition rate is greater than 85%) | 5 (Level 5: the growth inhibition rate is greater than 85%) | 5 (Level 5: the growth inhibition rate is greater than 85%) | 5 (Level 5: the growth inhibition rate is greater than 85%) |
| CC(Oc1nc(F)c(Cl)c(N)c1Cl)C(=O)OCc1ccccc1Br (stereo not shown) [Compound 205] | 5 (Level 5: the growth inhibition rate is greater than 85%) | 5 (Level 5: the growth inhibition rate is greater than 85%) | 5 (Level 5: the growth inhibition rate is greater than 85%) | 5 (Level 5: the growth inhibition rate is greater than 85%) | 5 (Level 5: the growth inhibition rate is greater than 85%) |
| CC(Oc1nc(F)c(Cl)c(N)c1Cl)C(=O)OCc1cccc(Br)c1 (stereo not shown) [Compound 206] | 5 (Level 5: the growth inhibition rate is greater than 85%) | 5 (Level 5: the growth inhibition rate is greater than 85%) | 5 (Level 5: the growth inhibition rate is greater than 85%) | 5 (Level 5: the growth inhibition rate is greater than 85%) | 5 (Level 5: the growth inhibition rate is greater than 85%) |
| CC(Oc1nc(F)c(Cl)c(N)c1Cl)C(=O)OCc1ccc(Br)cc1 (stereo not shown) [Compound 207] | 5 (Level 5: the growth inhibition rate is greater than 85%) | 5 (Level 5: the growth inhibition rate is greater than 85%) | 5 (Level 5: the growth inhibition rate is greater than 85%) | 5 (Level 5: the growth inhibition rate is greater than 85%) | 5 (Level 5: the growth inhibition rate is greater than 85%) |
| CC(Oc1nc(F)c(Cl)c(N)c1Cl)C(=O)OCc1ccccc1C(F)(F)F (stereo not shown) [Compound 208] | 5 (Level 5: the growth inhibition rate is greater than 85%) | 5 (Level 5: the growth inhibition rate is greater than 85%) | 5 (Level 5: the growth inhibition rate is greater than 85%) | 5 (Level 5: the growth inhibition rate is greater than 85%) | 5 (Level 5: the growth inhibition rate is greater than 85%) |
